Series [1] concerns SIV. The note with it: cited from earlier work.
For series [2], the system named is caspases. The note with it: cited from earlier work.
In series [3] the test system is HIV. The conditions noted are these: WO2009/092897; cited from earlier work.
The subject of series [4] is SARS-CoV-2. It is filed as cell-based.
Series [5] deals with SARS-CoV-2. The experiment in a line: microbe, parasite or virus in culture. In kind it is cell-based.
Series [6] relates to Vero E6 cells.
Series [7] relates to HIV-1 lai. The experiment in a line: Intracellular P24 capsid protein staining by flow cytometry in HIV-1 infected CD4 T lymphocytes. In kind it is cell-based. The conditions noted are these: 20 µM added every two days, staining day 4, 5, 6 post-infection. (A flow cytometer gives signals particle by particle.)
Series [8] concerns CD4 T lymphocytes infected with HIV-1 lai. The experiment in a line: Annexin V staining (cell mortality/apoptosis) of HIV-1 infected CD4 T lymphocytes. It is filed as cell-based. The note with it: 20 µM every two days; day 5 post-infection.
The test system of series [9] is SARS-CoV-2. It is filed as cell-based. This is another data set of the same source.

Where two headings read alike, the source gives them in different places.

The inhibition is how much of the control response was suppressed.

As to `CC(C)C(NC(=O)c1ccc2ccccc2n1)C(=O)NC(CC(=O)O)C(=O)COc1c(F)cccc1F` (stereo not shown) [Q-VD-OPh], the “AIDS disease progression and control of viral replication” value in [1] (SIV-infected rhesus macaques, five injections during primary infection) is “prevents AIDS disease progression”. In addition, the “cancer development after treatment” value in series [1] (six monkeys, four or five years after treatment) is given as “none of the animals have developed a cancer”. In [2], the caspase inhibitory activity entry is listed as “broad caspase inhibitor”. In addition, the “inhibition of viral replication in HIV-infected cells” value in series [3] was “inhibition of viral replication”.

On to `CC(C)C(NC(=O)c1ccc2ccccc2n1)C(=O)NC(CCC(=O)O)C(=O)COc1c(F)cccc1F` (stereo not shown) [Q-VE-OPh], for which the “relative expression of the Nucleocapsid (N) and NSP6 genes in supernatants of infected cells” value in series [4] is reported as “reduce significantly”. In addition, the “effect on the entry of the virus into the cell” value in series [5] is given as “no significant effect”. In addition, the inhibition at 50 µM in series [5] (Severe acute respiratory syndrome coronavirus 2, Vero C1008, 72 h, read-out: inhibition of SARS-CoV-2 viral replication) was about 99%. Further, in series [5] (Severe acute respiratory syndrome coronavirus 2, Vero C1008, 72 h, 25 µM, read-out: inhibition of SARS-CoV-2 viral replication), the inhibition at 25 µM is about 70%. Moreover, the “toxicity on Vero E6 cells” value is on record as “without any toxicity” in [6] (100 µM added for three days) and “no toxicity effect” in series [6] (25, 50, 100 µM, infected (MOI 0.05) or not, 72 h post-infection). Further, in series [7], the “antiviral effect on HIV-1 replication (intracellular P24 capsid protein)” value (“antiviral effect on HIV-1 replication” below) is recorded as “same antiviral effect as the comparative Q-VD-OPh molecule”. Also, the caspase inhibitory activity result in [2] is “does not show any caspase inhibitory activity”. For the same molecule, the “cell mortality (Annexin V surface staining)” value (shortened to “cell mortality”) in series [8] is “much less mortality than the infected cells”. Besides, the “expression of the viral Spike and Nucleocapsid proteins within infected cells” value in [9] is “reduce significantly”.

On to `CC(C)[C@H](NC(=O)c1ccc2ccccc2n1)C(=O)N[C@@H](CC(=O)O)C(=O)COc1c(F)cccc1F` [QVD-Unmethylated], for which the “antiviral effect on HIV-1 replication” value in series [7] is listed as “same antiviral effect”. Besides, in series [8], the “cell mortality” value is recorded as “The results were the same”.

Consider `COC(=O)C[C@H](NC(=O)[C@@H](NC(=O)c1ccc2ccccc2n1)C(C)C)C(=O)COc1c(F)cccc1F` [QVD-methylated], for which, in series [7], the “antiviral effect on HIV-1 replication” value is “same antiviral effect”. Besides, the “cell mortality” value in [8] is “contrary”.

As for `CCO[C@@H]1OC(=O)C[C@@H]1NC(=O)[C@@H]1CCCN1C(=O)[C@@H](NC(=O)c1ccc(N)c(Cl)c1)C(C)(C)C` [VX-765], the “antiviral effect on HIV-1 replication” value in series [7] is “no effect on the viral replication”.

The values are drawn from patent US20230181560A1, “COMPOUND FOR PREVENTING OR TREATING A VIRAL INFECTION” (priority 2020, published 2023).
